# Measurements published in patent publication US20240156838A1, “Contraceptive Compositions and Methods for Improved Efficacy and Modulation of Side Effects” (Agile Therapeutics, Inc., priority 2015, published 2024).
# Where two headings read alike, the source gives them in different places.
# What was measured:
# [1] = cited from earlier work; for unenhanced flux: without chemical enhancers
# SHBG [2] = target: T1, SHBG (Homo sapiens, UniProt P04278); details: cited from earlier work; for binding affinity for SHBG: Phillips 1990, Steroids
# T1 sequence (P04278 30-402): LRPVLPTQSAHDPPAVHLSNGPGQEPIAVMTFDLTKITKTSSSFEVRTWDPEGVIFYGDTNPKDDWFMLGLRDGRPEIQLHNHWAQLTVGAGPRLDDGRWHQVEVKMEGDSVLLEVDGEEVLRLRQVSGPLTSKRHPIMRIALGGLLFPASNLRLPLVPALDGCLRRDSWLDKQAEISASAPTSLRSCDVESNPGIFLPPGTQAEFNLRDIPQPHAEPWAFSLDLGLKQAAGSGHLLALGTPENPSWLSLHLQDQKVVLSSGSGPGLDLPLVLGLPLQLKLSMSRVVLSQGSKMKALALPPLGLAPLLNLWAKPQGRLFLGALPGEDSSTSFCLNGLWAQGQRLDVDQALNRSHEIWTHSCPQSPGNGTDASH
# [3] = in vivo; cited from earlier work
# [4] = Second clinical trial of LNG plus EE transdermal patches (Example 2): serum/plasma LNG and EE levels; details: clinical data of LNG plus EE patches versus LNG-only patches
# SHBG [5] = target: T1, SHBG; details: cited from earlier work
# [6] = human, in vivo
# [7] = In vitro skin permeation of LNG from patches, Franz diffusion cells; assay type: in vitro ADME, human; details: comparison in words
# Protocol: The objective of this study was to compare in vitro skin permeation of LNG through human cadaver skin from a patch containing both EE and LNG (Patch of column 4, Table 1) with a patch containing only LNG (patch in column 2, Table 1).
# Only one (1) skin donor was used in these in vitro skin permeation experiments (split thickness dermatomed approximately at […] human cadaver skin). All in vitro skin permeation studies were conducted using the PermeGear Membrane Transport System. Each Membrane Transport System consisted of vertical, jacketed (37° C.±0.5° C.) Franz diffusion cells with magnetic stirrer, 2 chamber (donor and receiver) sets of 6 units, orifice diameter 15 mm, effective permeation surface area 1.767 cm^2. Each cell was prepared by cutting the skin samples into approximately 3 cm×3 cm squares and mounting them on the top of the receiver compartment of Franz cells. Patches to be tested were placed on the stratum corneum surface of the skin and the donor and receiver compartments of the diffusion cells were then clamped in place. The receiver compartment was then filled with approximately 12 mL of receiver medium/receptor solution (Phosphate Buffered Saline (PBS)+0.5% Oleth 20+0.008% Gentamicin, pH 7.3), tilting to make sure the receiver medium and the skin/solution interface was free of any air bubbles.
# Skin flux studies were run for a period of 168 hours. […]
# [8] = Victor et al., J. Clin. Endocrinol. Metab. 43: 244
compound,measurement,setting,value
C#C[C@]1(O)CC[C@H]2[C@@H]3CCC4=CC(=NO)CC[C@@H]4[C@H]3CC[C@@]21CC (mixture of isomers) [17 deacetylnorgestimate],unenhanced flux,[1]; from cited patents,0.1 micrograms/cm^2/hr
C#C[C@]1(OC(C)=O)CC[C@H]2[C@@H]3CCC4=CC(=NO)CC[C@@H]4[C@H]3CC[C@@]21CC (mixture of isomers) [norgestimate],binding affinity for SHBG,SHBG [2],low binding affinity
C#CC1(O)CC[C@H]2[C@@H]3CCC4=CC(=O)CC[C@@H]4[C@H]3CC[C@@]21CC (mixture of isomers) [dl-norgestrel],binding affinity to SHBG,SHBG [2]; [8],higher affinity for SHBG than EE
C#C[C@]1(O)CC[C@H]2[C@@H]3CCC4=CC(=O)CC[C@@H]4[C@H]3C(=C)C[C@@]21CC [3-keto desogestrel],binding affinity for SHBG,SHBG [2],reasonably high affinities
same,binding affinity to SHBG,"SHBG [2]; Pollow 1989, Contraception",high binding affinity
"C[C@]12CC[C@@H]3c4ccc(O)cc4CC[C@H]3[C@@H]1CC[C@@H]2O [17-beta estradiol, 17-beta-estradiol]",oral bioavailability,[3],less than 10%
"C#C[C@]1(O)CC[C@H]2[C@@H]3CCc4cc(O)ccc4[C@H]3CC[C@@]21C [EE, ethinyl estradiol]",increase of LNG plasma levels by addition of EE relative to addition of an equivalent amount of LNG,[4],about ten
same,IC50,"SHBG [5]; Hong et al., 2015, read-out: IC50 in testosterone displacement assay",790 nM
same,IC50,"SHBG [5]; according to Hong (2015), read-out: IC50 (affinity for SHBG)",800 nM
same,oral bioavailability,[3],95%
"C#C[C@]1(O)CC[C@H]2[C@@H]3CCC4=CC(=O)CC[C@@H]4[C@H]3CC[C@@]21CC [LNG, levonorgestrel]","mean serum concentration of LNG, value extrapolated from the data collected",[6],1420 picograms per milliliter
same,"permeation/release of LNG through human skin, LNG-only versus LNG plus EE patches",[7],not affected by the presence of EE
CC(=O)O[C@]1(C(C)=O)CC[C@H]2[C@@H]3C=C(C)C4=CC(=O)CC[C@]4(C)[C@H]3CC[C@@]21C [Megestrol acetate],binding affinity to SHBG,SHBG [2]; [8],do not have high binding affinity
C#C[C@]1(OC(C)=O)CC[C@H]2[C@@H]3CCC4=CC(=O)CC[C@@H]4[C@H]3CC[C@@]21C [Norethindrone Acetate],flux,"[1]; U.S. Pat. No. 5,474,783, enhancement not stated",0.05 micrograms/cm^2/hr
CC(=O)O[C@]1(C(C)=O)CC[C@H]2[C@@H]3C=C(Cl)C4=CC(=O)[C@@H]5C[C@@H]5[C@]4(C)[C@H]3CC[C@@]21C [cyproterone acetate],binding affinity to SHBG,"SHBG [2]; Pollow 1989, Contraception",lesser binding affinity
C#C[C@]1(O)CC[C@H]2[C@@H]3CCC4=CC(=O)CC[C@@H]4[C@H]3CC[C@@]21CC [d-norgestrel],binding affinity to SHBG,SHBG [2]; [8],higher affinity for SHBG than EE
C#C[C@]1(O)CC[C@H]2[C@@H]3CCC4=CCCC[C@@H]4[C@H]3C(=C)C[C@@]21CC [desogestrel],binding affinity to SHBG,"SHBG [2]; Pollow 1989, Contraception",lesser binding affinity
same,binding affinity to SHBG,SHBG [2]; Schoultz 1989,lesser binding affinity
C#C[C@]1(O)C=C[C@H]2[C@@H]3CCC4=CC(=O)CC[C@@H]4[C@H]3CC[C@@]21CC [gestodene],binding affinity for SHBG,SHBG [2],reasonably high affinities
same,binding affinity to SHBG,"SHBG [2]; Pollow 1989, Contraception",high binding affinity
C#C[C@]1(O)CC[C@H]2[C@@H]3CCC4=CCCC[C@@H]4[C@H]3CC[C@@]21C [lynestrenol],binding affinity to SHBG,SHBG [2]; [8],higher affinity for SHBG than EE
CC(=O)O[C@]1(C(C)=O)CC[C@H]2[C@@H]3C[C@H](C)C4=CC(=O)CC[C@]4(C)[C@H]3CC[C@@]21C [medroxyprogesterone acetate],binding affinity to SHBG,"SHBG [2]; Pollow 1989, Contraception",lesser binding affinity
same,binding affinity to SHBG,SHBG [2]; Schoultz 1989,lesser binding affinity
C=C1C[C@H]2[C@@H]3CCC4=CC(=O)CC[C@@H]4[C@H]3CC[C@]2(C)[C@@]1(OC(C)=O)C(C)=O [nesterone],enhanced flux,"[1]; with chemical enhancers, from cited patents",0.01 micrograms/cm^2/hr
same,unenhanced flux,[1]; from cited patents,0.005 micrograms/cm^2/hr
C#C[C@]1(OC(C)=O)CC[C@H]2[C@@H]3CCC4=CC(=O)CC[C@@H]4[C@H]3CC[C@@]21C [norethisterone acetate],unenhanced flux,[1]; from cited patents,0.05 micrograms/cm^2/hr
C#C[C@]1(O)CC[C@H]2[C@@H]3CCC4=CC(=O)CC[C@@H]4[C@H]3CC[C@@]21C [norethisterone],binding affinity to SHBG,SHBG [2]; Schoultz 1989,high binding affinity
same,binding affinity to SHBG,SHBG [2]; [8],higher affinity for SHBG than EE
C#C[C@]1(O)CC[C@H]2[C@@H]3CCC4=C(CCC(=O)C4)[C@H]3CC[C@@]21C [norethynodrel],binding affinity to SHBG,SHBG [2]; [8],higher affinity for SHBG than EE
CC(=O)[C@H]1CC[C@H]2[C@@H]3CCC4=CC(=O)CC[C@]4(C)[C@H]3CC[C@]12C [progesterone],unenhanced flux,[1]; from cited patents,0.14 micrograms/cm^2/hr
same,binding affinity to SHBG,"SHBG [2]; Pollow 1989, Contraception",lesser binding affinity
medroxyprogesterone,binding affinity to SHBG,SHBG [2]; [8],do not have high binding affinity
